Columns and labels:
[1] = system: chronic spastic SCl rat model; experiment: BBB scoring system for motor function in spastic SCI rats; format: in vivo, Sprague Dawley rats
Method: (§1) Subjects—Twenty Sprague Dawley rats with severe spinal cord injury and spasticity, which were more than ten weeks from initial weight, drop injury. […] The rats were implanted using the 2 French Fogarty balloon catheter attached to a refillable 1 cc. Pumps (ESOX Minneapolis Minn.) placed surgically in the subcutaneously between the shoulder blades one week earlier that had been effectively delivering preservative free normal saline. The ESOX pump flowed at a rate of 60 μl per day. The pump initially contained saline solution and the animals were again tested several days after pump placement for spasticity. […] The pump has the advantage that the solution in the pump can be changed so that drugs can be evaluated. GABAmide was placed in the pumps and the animals were evaluated at the times specified below. […] Rats were also assessed for functional changes utilizing the BBB scoring system for motor function and for their ability to walk a series of balance beams without falling that started at 7.7 cm. and decreased in 1 cm increments to 1.7 cm. in diameter (the smallest a normal rat can easily and reliably cross). […] Differences over times were assessed via descriptive statistics, Friedman's analysis, Wilcoxon signed-rank, for nonparametric data (spasticity, BBB score and beam walking).

[2] = system: canine model; settings: 2000 μg/d for 28 days, intrathecal; cited from earlier work
[3] = system: chronic spastic SCl rat model; experiment: Ability to walk a series of balance beams (7.7 cm to 1.7 cm) in spastic SCI rats; format: in vivo, Sprague Dawley rats; settings: for beam walking, mean: 15 micrograms per day intrathecal
Method: Subjects—Twenty Sprague Dawley rats with severe spinal cord injury and spasticity, which were more than ten weeks from initial weight, drop injury. […] The rats were implanted using the 2 French Fogarty balloon catheter attached to a refillable 1 cc. Pumps (ESOX Minneapolis Minn.) placed surgically in the subcutaneously between the shoulder blades one week earlier that had been effectively delivering preservative free normal saline. The ESOX pump flowed at a rate of 60 μl per day. The pump initially contained saline solution and the animals were again tested several days after pump placement for spasticity. Design—Rats were randomized to a blinded three-arm study utilizing GABAmide, baclofen and placebo in a cross over design. The pump has the advantage that the solution in the pump can be changed so that drugs can be evaluated. GABAmide was placed in the pumps and the animals were evaluated at the times specified below. Main Outcome Measures—Rats were tested weekly for levels of spasticity: 4) spasms spontaneously occur over a four minute observation period 3) spasms with light touch of the foot 2) spasms with passive movement of the foot and leg by extending the leg 1) spasms with painful stimulation—extend leg and pinch foot 0) no spasms inducible This scale was adapted for use in animals from the Ashworth score (Albright et al., Intrathecal baclofen therapy for spasticity of cerebral origin: Patient selection guidelines 1997), which has been utilized so frequently in human trials and in the clinical management of intrathecal baclofen. Meythaler et al., Arch. Phys. Med. Rehabil. […] Rats were also assessed for functional changes utilizing the BBB scoring system for motor function and for their ability to walk a series of balance beams without falling that started at 7.7 cm. and decreased in 1 cm increments to 1.7 cm. in diameter (the smallest a normal rat can easily and reliably cross). […] Differences over times were assessed via descriptive statistics, Friedman's analysis, Wilcoxon signed-rank, for nonparametric data (spasticity, BBB score and beam walking).

[4] = Stability in solution; format: physicochemical
Source text: In a preferred embodiment, the compound administered to a patient or subject is the gamma-aminobutyramide, a solubility product obtained by dissolving PROGABIDE in a solvent thereby generating gamma-aminobutyramide and an insoluble ketone. The insoluble ketone (4-chlorophenyl-5-fluoro-2-hydroxyphenylmethanone) is subsequently removed by filtration leaving the pure, stable gamma-aminobutyramide.

[5] = Solubility in water; format: physicochemical
[6] = system: chronic spastic SCl rat model; experiment: Tolerability of intrathecal delivery in spastic SCI rats; format: in vivo
Method: (§2) A study on the use GABAmide was performed to compare its effectiveness to reduce spasticity and assess toxicity via intrathecal delivery in a chronic spastic SCl rat model utilizing an implantable refillable pump.
as §1, with “day.” for “day. The pump initially contained saline solution and the animals were again tested several days after pump placement for spasticity.”

[7] = system: chronic spastic SCl rat model; experiment: Spasticity score (scale adapted from the Ashworth score) in chronic spastic SCI rat model, intrathecal delivery by implantable pump; format: in vivo, Sprague Dawley rats; settings: compared with baclofen
Method: as §2
as §1, with “day.” for “day. The pump initially contained saline solution and the animals were again tested several days after pump placement for spasticity.”

[8] = 5 micrograms per day intrathecal, throughout the study

change in BBB score ([1]; 15 micrograms per day intrathecal, day five of treatment) | beam walking, mean ([3]; day five of treatment) [cm] | beam walking, mean ([3]; day three, baseline 5.2 cm, p=0.01 Friedman's) [cm] | Structure (SMILES) | histopathology [2] | stability [4] | change in BBB score [1, 8] | solubility in water [5] | tolerability [6] | change in beam walking [3, 8] | accommodation to spasticity [7]
not significant | 6.0 | 2.7 | NCC(CC(=O)O)c1ccc(Cl)cc1 (stereo not shown) [baclofen] | no deleterious histopathology | – | – | – | – | – | –
– | – | – | NCCCC(N)=O [GABAmide, gamma-aminobutyramide] | – | relatively stable for long periods of time | not statistically significant change | soluble in water | well tolerated | not statistically significant change | less accommodation to spasticity than baclofen
